In US11471391B2, “Cosmetic composition for inhibiting sebum hypersecretion” (NeoPharm Co., Ltd., priority 2019, dated 2022):

Assays:
Format in all cases: cell-based
PPAR-γ = assay: Effect of inhibiting expression of PPAR-γ by Western blot in IGF-1-treated human sebocytes; details: human sebocytes pretreated with IGF-1 (50 ng/ml), sample 20 μM, 24 hours, FIG. 1
Method: 1. Effect of Inhibiting Expression of PPAR-γ by Western Blot
In the present invention, 1.5×10^5 (1 mL/well) of human sebocytes were adhered on a 12-well plate containing a Dulbecco's modified eagle medium (DMEM)/F12 (1:1) containing 10% fetal bovine serum (FBS). After culturing for 24 hours, cells were collected after 24 hours from each sample of a control group (1 μM) in which the medium was replaced with a serum-free medium and previously treated with IGF-1 (50 ng/ml) and an experimental group in which the control group was treated with Compound 1 of Example 1 (20 μM). In addition, in the present invention, the control means a sample which was not treated with IGF-1, and the comparative group means a sample in which the control group was treated with retinoic acid (20 μM). Thereafter, expression of PPAR-γ protein which is a representative lipid synthetic transcription factor of sebocytes was analyzed by the Western blot, for each of these samples.

human sebocytes [1] = assay: Effect of inhibiting sebum secretion, oil red O staining of IGF-1-treated human sebocytes
Method: 2. Effect of Inhibiting Sebum Secretion
(§1) 1×10^5 (1 mL/well) of human sebocytes were adhered on a 12-well plate containing a Dulbecco's modified eagle medium (DMEM)/F12 (1:1) containing 10% fetal bovine serum (FBS).
In FIG. 2, each sample of a control group (1 μM) which was previously treated with IGF-1 (50 ng/ml) after culturing for 24 hours and an experimental group in which the control group was treated with Compound 1 of Example 1 (20 μM) was stained after 24 hours with a 0.5% oil red O solution for 1 hour and treated with 100% isopropanol, and an absorbance was measured by a 500 nm ELISA reader.

human sebocytes [2] = assay: Nile red staining of human sebocytes, microscopic image; details: Nile red 1 ug/ml for 30 minutes, FIG. 3
Method: as §1

CCCCCCCC(=O)C(CCCCCC)C(=O)N[C@@H](C)C(=O)OC (stereo partly shown) [Compound 1, methyl (2-hexyl-3-oxodecanoyl)alaninate]
inhibition of PPAR-γ activation/expression (Western blot) (PPAR-γ): effect of inhibiting PPAR-γ activity is remarkable
sebum production amount (fat content in sebocytes, oil red O, absorbance 500 nm) (human sebocytes [1]; human sebocytes pretreated with IGF-1 (50 ng/ml), 20 μM, 24 hours, FIG. 2): remarkably decreased
dependence of the sebum production decrease on treatment concentration (human sebocytes [1]; human sebocytes pretreated with IGF-1, oil red O, each concentration): significantly increased depending on the treatment concentration
differentiation of fat cells (Nile red staining, microscopic image) (human sebocytes [2]): differentiation of fat cells is more effectively derived
